Results published in ChEMBL document CHEMBL1909046, “DrugMatrix in vitro pharmacology data”.

What was measured:
[1] = biological target: Sodium-dependent noradrenaline transporter (Homo sapiens, UniProt P23975); assay: DRUGMATRIX: Norepinephrine Transporter radioligand binding (ligand: [125I] RTI-55); format: cell membranes, MDCK, Membrane; details: mdck; Not Active = under 50% inhibition at 10 µM
Cytochrome P450 2C19 = Cytochrome P450 2C19 (Homo sapiens, UniProt P33261); details: bti-tn-5b1-4; further: in other assays of this panel Not Active means under 50% inhibition at 10 µM
Cytochrome P450 2C19, sequence (P33261 whole entry): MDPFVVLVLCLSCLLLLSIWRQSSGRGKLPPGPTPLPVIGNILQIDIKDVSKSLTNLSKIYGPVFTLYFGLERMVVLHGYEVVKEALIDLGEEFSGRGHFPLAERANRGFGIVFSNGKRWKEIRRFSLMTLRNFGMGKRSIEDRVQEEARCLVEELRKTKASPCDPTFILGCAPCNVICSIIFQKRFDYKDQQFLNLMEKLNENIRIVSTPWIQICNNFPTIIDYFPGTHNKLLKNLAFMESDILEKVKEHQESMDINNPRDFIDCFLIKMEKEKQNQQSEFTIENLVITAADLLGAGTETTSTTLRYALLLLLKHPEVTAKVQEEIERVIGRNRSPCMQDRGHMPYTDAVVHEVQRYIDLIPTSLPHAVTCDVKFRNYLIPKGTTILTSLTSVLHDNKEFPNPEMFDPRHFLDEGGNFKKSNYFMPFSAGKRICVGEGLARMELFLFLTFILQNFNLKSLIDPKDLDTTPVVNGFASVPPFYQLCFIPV

Cytochrome P450 2C9 = Cytochrome P450 2C9 (Homo sapiens, UniProt P11712); details: bti-tn-5b1-4; further: in other assays of this panel Not Active means under 50% inhibition at 10 µM
Cytochrome P450 2C9, sequence (P11712 whole entry): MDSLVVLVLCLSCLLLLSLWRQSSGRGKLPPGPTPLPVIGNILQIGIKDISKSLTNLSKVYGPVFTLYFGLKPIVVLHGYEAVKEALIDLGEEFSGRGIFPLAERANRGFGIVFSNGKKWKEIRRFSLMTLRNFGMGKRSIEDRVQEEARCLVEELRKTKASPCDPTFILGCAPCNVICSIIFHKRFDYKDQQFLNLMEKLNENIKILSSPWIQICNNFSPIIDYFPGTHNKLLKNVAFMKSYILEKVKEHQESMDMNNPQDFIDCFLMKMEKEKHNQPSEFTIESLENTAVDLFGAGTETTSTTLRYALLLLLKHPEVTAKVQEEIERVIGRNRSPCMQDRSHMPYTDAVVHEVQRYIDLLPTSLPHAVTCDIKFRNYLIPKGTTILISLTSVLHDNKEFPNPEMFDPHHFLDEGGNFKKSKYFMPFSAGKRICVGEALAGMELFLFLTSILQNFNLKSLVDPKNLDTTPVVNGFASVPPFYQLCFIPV

Estrogen receptor = biological target: T1, Estrogen receptor (Homo sapiens, UniProt P03372); details: sf9; further: in other assays of this panel Not Active means under 50% inhibition at 10 µM
T1 sequence (P03372 whole entry): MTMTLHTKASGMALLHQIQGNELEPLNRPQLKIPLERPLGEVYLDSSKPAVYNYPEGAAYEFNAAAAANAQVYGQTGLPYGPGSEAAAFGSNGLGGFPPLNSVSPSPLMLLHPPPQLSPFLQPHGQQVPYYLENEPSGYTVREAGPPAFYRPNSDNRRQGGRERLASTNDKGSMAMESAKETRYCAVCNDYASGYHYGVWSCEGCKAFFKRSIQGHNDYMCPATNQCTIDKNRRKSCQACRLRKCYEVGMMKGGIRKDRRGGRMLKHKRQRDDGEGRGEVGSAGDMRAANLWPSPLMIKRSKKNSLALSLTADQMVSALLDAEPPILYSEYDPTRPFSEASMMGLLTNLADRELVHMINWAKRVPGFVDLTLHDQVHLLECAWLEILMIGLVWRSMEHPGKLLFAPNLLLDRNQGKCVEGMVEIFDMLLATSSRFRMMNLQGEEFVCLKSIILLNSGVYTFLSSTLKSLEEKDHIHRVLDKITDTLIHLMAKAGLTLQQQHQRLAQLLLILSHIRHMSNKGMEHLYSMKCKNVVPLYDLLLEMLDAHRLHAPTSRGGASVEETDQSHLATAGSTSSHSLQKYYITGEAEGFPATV

Estrogen receptor beta = Estrogen receptor beta (Homo sapiens, UniProt Q92731); details: sf9; further: in other assays of this panel Not Active means under 50% inhibition at 10 µM
Estrogen receptor beta, sequence (Q92731 whole entry): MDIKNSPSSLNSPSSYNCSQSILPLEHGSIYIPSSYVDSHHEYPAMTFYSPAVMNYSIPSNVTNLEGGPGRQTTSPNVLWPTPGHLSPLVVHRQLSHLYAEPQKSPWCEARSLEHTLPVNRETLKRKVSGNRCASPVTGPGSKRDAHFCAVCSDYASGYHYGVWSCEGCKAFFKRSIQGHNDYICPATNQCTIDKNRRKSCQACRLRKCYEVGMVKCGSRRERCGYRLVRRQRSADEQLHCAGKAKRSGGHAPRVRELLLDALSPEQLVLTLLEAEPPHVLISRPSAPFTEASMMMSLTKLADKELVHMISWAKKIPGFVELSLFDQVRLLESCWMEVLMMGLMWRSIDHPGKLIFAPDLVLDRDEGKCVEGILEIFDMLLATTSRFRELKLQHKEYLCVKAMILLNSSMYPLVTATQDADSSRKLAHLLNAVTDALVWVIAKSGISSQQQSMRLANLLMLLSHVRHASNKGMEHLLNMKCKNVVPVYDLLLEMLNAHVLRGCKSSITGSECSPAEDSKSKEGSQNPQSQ

Cytochrome P450 3A4 = Cytochrome P450 3A4 (Homo sapiens, UniProt P08684); details: bti-tn-5b1-4; further: in other assays of this panel Not Active means under 50% inhibition at 10 µM
Cytochrome P450 3A4, sequence (P08684 whole entry): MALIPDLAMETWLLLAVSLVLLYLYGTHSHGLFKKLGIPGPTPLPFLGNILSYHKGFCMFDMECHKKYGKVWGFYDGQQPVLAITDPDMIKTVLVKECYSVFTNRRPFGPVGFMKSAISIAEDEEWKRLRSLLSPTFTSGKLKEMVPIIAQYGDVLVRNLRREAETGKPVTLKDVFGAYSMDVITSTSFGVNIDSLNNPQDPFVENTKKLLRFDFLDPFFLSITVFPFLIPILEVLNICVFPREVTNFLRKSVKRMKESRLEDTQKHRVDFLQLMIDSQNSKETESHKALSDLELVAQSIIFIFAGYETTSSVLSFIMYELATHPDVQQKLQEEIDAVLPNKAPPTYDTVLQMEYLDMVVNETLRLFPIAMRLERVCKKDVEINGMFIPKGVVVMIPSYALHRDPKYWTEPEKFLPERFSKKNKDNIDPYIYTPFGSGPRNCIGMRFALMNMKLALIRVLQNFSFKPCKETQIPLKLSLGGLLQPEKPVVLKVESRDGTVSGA

Sodium-dependent noradrenaline transporter, sequence (P23975 whole entry): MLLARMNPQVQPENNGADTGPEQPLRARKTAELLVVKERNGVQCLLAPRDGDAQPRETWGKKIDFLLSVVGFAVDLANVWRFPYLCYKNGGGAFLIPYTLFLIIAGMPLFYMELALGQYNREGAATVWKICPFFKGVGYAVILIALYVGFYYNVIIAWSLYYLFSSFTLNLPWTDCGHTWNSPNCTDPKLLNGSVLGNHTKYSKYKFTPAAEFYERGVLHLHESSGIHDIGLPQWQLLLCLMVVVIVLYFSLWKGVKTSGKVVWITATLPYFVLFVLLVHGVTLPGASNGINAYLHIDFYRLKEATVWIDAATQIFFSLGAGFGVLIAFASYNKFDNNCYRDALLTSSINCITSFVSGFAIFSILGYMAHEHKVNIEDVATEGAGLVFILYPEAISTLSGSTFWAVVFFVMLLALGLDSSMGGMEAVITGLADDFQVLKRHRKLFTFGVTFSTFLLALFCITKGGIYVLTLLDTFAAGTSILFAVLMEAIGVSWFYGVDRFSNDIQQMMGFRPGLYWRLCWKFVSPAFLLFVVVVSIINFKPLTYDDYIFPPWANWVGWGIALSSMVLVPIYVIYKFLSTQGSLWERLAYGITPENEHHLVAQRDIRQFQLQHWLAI

CCOC(=O)[C@H](CCc1ccccc1)N[C@@H](C)C(=O)N1[C@H](C(=O)O)C[C@@H]2CCC[C@@H]21
Not Active: IC50 [1] | IC50 (Cytochrome P450 2C19) | Ki (Cytochrome P450 2C19) | IC50 (Cytochrome P450 2C9) | Ki (Cytochrome P450 2C9) | IC50 (Estrogen receptor) | IC50 (Estrogen receptor beta)

CC1(C)[C@H]2CC[C@]1(C)C(=O)C2 [(-)-CAMPHOR]
Not Active: IC50 [1] | IC50 (Cytochrome P450 2C19) | Ki (Cytochrome P450 2C19) | IC50 (Cytochrome P450 2C9) | Ki (Cytochrome P450 2C9) | IC50 (Cytochrome P450 3A4) | Ki (Cytochrome P450 3A4) | IC50 (Estrogen receptor) | IC50 (Estrogen receptor beta)

CC(C)(C)NCC(O)c1ccc(O)c(CO)c1 (stereo unspecified) [ALBUTEROL]
Not Active: IC50 [1] | IC50 (Cytochrome P450 2C19) | Ki (Cytochrome P450 2C19) | IC50 (Cytochrome P450 2C9) | Ki (Cytochrome P450 2C9) | IC50 (Cytochrome P450 3A4) | Ki (Cytochrome P450 3A4) | IC50 (Estrogen receptor) | IC50 (Estrogen receptor beta)

Oc1c(I)cc(I)c2cccnc12 [IODOQUINOL]
Not Active: IC50 [1] | IC50 (Cytochrome P450 2C19) | Ki (Cytochrome P450 2C19) | IC50 (Cytochrome P450 2C9) | Ki (Cytochrome P450 2C9) | IC50 (Cytochrome P450 3A4) | Ki (Cytochrome P450 3A4) | IC50 (Estrogen receptor) | IC50 (Estrogen receptor beta)

NNC(=O)c1ccncc1 [ISONIAZID]
Not Active: IC50 [1] | IC50 (Cytochrome P450 2C19) | Ki (Cytochrome P450 2C19) | IC50 (Cytochrome P450 2C9) | Ki (Cytochrome P450 2C9) | IC50 (Cytochrome P450 3A4) | Ki (Cytochrome P450 3A4) | IC50 (Estrogen receptor) | IC50 (Estrogen receptor beta)

CO[C@@H]1[C@@H](O[C@@H]2O[C@H](C)[C@@H](O[C@H]3C[C@@](C)(O)[C@@H](OC(=O)CC(C)C)[C@H](C)O3)[C@H](N(C)C)[C@H]2O)[C@@H](CC=O)C[C@@H](C)[C@@H](O)/C=C/C=C/C[C@@H](C)OC(=O)C[C@H]1O [KITASAMYCIN]
Not Active: IC50 [1] | IC50 (Cytochrome P450 2C19) | Ki (Cytochrome P450 2C19) | IC50 (Cytochrome P450 2C9) | Ki (Cytochrome P450 2C9) | IC50 (Cytochrome P450 3A4) | Ki (Cytochrome P450 3A4) | IC50 (Estrogen receptor) | IC50 (Estrogen receptor beta)

CCC[C@@H]1C[C@@H](C(=O)N[C@@H]([C@H]2O[C@H](SC)[C@H](O)[C@@H](O)[C@H]2O)[C@@H](C)O)N(C)C1 [LINCOMYCIN]
Not Active: IC50 [1] | IC50 (Cytochrome P450 2C19) | Ki (Cytochrome P450 2C19) | IC50 (Cytochrome P450 2C9) | Ki (Cytochrome P450 2C9) | IC50 (Cytochrome P450 3A4) | Ki (Cytochrome P450 3A4) | IC50 (Estrogen receptor) | IC50 (Estrogen receptor beta)

CC(=O)[C@H]1CC[C@H]2[C@@H]3CCC4=CC(=O)CC[C@]4(C)[C@H]3CC[C@]12C [PROGESTERONE]
Not Active: IC50 [1] | IC50 (Cytochrome P450 2C19) | Ki (Cytochrome P450 2C19) | IC50 (Cytochrome P450 2C9) | Ki (Cytochrome P450 2C9) | IC50 (Cytochrome P450 3A4) | Ki (Cytochrome P450 3A4) | IC50 (Estrogen receptor) | IC50 (Estrogen receptor beta)

O=[N+]([O-])c1cc([As](=O)(O)O)ccc1O [ROXARSONE]
Not Active: IC50 [1] | Ki [1] | IC50 (Cytochrome P450 2C19) | Ki (Cytochrome P450 2C19) | IC50 (Cytochrome P450 2C9) | Ki (Cytochrome P450 2C9) | IC50 (Cytochrome P450 3A4) | Ki (Cytochrome P450 3A4) | IC50 (Estrogen receptor) | Ki (Estrogen receptor) | IC50 (Estrogen receptor beta) | Ki (Estrogen receptor beta)

NC(=O)c1ccccc1O [SALICYLAMIDE]
Not Active: IC50 [1] | IC50 (Cytochrome P450 2C19) | Ki (Cytochrome P450 2C19) | IC50 (Cytochrome P450 2C9) | Ki (Cytochrome P450 2C9) | IC50 (Cytochrome P450 3A4) | Ki (Cytochrome P450 3A4) | IC50 (Estrogen receptor) | IC50 (Estrogen receptor beta)

Cc1ncc([N+](=O)[O-])n1CC(C)O (stereo unspecified) [SECNIDAZOLE]
Not Active: IC50 [1] | IC50 (Cytochrome P450 2C19) | Ki (Cytochrome P450 2C19) | IC50 (Cytochrome P450 2C9) | Ki (Cytochrome P450 2C9) | IC50 (Cytochrome P450 3A4) | Ki (Cytochrome P450 3A4) | IC50 (Estrogen receptor) | IC50 (Estrogen receptor beta)

Nc1ccc(S(=O)(=O)Nc2ccnn2-c2ccccc2)cc1 [SULFAPHENAZOLE]
Not Active: IC50 [1] | IC50 (Cytochrome P450 2C19) | Ki (Cytochrome P450 2C19) | IC50 (Cytochrome P450 3A4) | Ki (Cytochrome P450 3A4) | IC50 (Estrogen receptor) | IC50 (Estrogen receptor beta)

CC1CN(c2cc3c(cc2F)c(=O)c(C(=O)O)cn3-c2ccc(F)cc2F)CCN1 (stereo unspecified) [TEMAFLOXACIN]
Not Active: IC50 [1] | IC50 (Cytochrome P450 2C19) | Ki (Cytochrome P450 2C19) | IC50 (Cytochrome P450 2C9) | Ki (Cytochrome P450 2C9) | IC50 (Cytochrome P450 3A4) | Ki (Cytochrome P450 3A4) | IC50 (Estrogen receptor) | IC50 (Estrogen receptor beta)

Cc1ccc(C(=O)C(C)CN2CCCCC2)cc1 (stereo unspecified) [TOLPERISONE]
Not Active: IC50 [1] | IC50 (Cytochrome P450 2C19) | Ki (Cytochrome P450 2C19) | IC50 (Cytochrome P450 2C9) | Ki (Cytochrome P450 2C9) | IC50 (Cytochrome P450 3A4) | Ki (Cytochrome P450 3A4) | IC50 (Estrogen receptor) | IC50 (Estrogen receptor beta)

CC(C)[C@H](N)C(=O)OCCOCn1cnc2c(=O)nc(N)[nH]c21 [VALACYCLOVIR]
Not Active: IC50 [1] | IC50 (Cytochrome P450 2C19) | Ki (Cytochrome P450 2C19) | IC50 (Cytochrome P450 2C9) | Ki (Cytochrome P450 2C9) | IC50 (Cytochrome P450 3A4) | Ki (Cytochrome P450 3A4) | IC50 (Estrogen receptor) | IC50 (Estrogen receptor beta)

CN[C@H](CC(C)C)C(=O)N[C@H]1C(=O)N[C@@H](CC(N)=O)C(=O)N[C@H]2C(=O)N[C@H]3C(=O)N[C@H](C(=O)N[C@H](C(=O)O)c4cc(O)cc(O)c4-c4cc3ccc4O)[C@H](O)c3ccc(c(Cl)c3)Oc3cc2cc(c3O[C@@H]2O[C@H](CO)[C@@H](O)[C@H](O)[C@H]2O[C@H]2C[C@](C)(N)[C@H](O)[C@H](C)O2)Oc2ccc(cc2Cl)[C@H]1O [VANCOMYCIN]
Not Active: IC50 [1] | IC50 (Cytochrome P450 2C19) | Ki (Cytochrome P450 2C19) | IC50 (Cytochrome P450 3A4) | Ki (Cytochrome P450 3A4) | IC50 (Estrogen receptor) | IC50 (Estrogen receptor beta)
